Converted amounts (≈) assume the structure as drawn.
Assays:
[1] = system: Pseudomonas aeruginosa; assay: Antibacterial activity against Pseudomonas aeruginosa PS1111 with arr-4 gene by Etest method; format: functional
[2] = system: Klebsiella pneumoniae; assay: Antibacterial activity against Klebsiella pneumoniae K830 with arr-5 gene by Etest method; format: functional
[3] = system: Klebsiella pneumoniae; assay: Antibacterial activity against Klebsiella pneumoniae K56 with arr-5 gene by Etest method; format: functional
[4] = system: Klebsiella pneumoniae; assay: Antibacterial activity against Klebsiella pneumoniae K224 with arr-5 gene by Etest method; format: functional
[5] = system: Klebsiella pneumoniae; assay: Antibacterial activity against Klebsiella pneumoniae K688 with arr-5 gene by Etest method; format: functional
[6] = system: Escherichia coli; assay: Antibacterial activity against Escherichia coli […] harboring arr-4 gene after 20 hrs by Etest method; format: functional
[7] = system: Escherichia coli; assay: Antibacterial activity against Escherichia coli […] harboring arr-5 gene after 20 hrs by Etest method; format: functional
[8] = system: Klebsiella pneumoniae; assay: Antibacterial activity against Klebsiella pneumoniae ATCC 10031 control strain by Etest method

CO[C@H]1/C=C/O[C@@]2(C)Oc3c(C)c(O)c4c(O)c(c(/C=N/N5CCN(C)CC5)c(O)c4c3C2=O)NC(=O)/C(C)=C\C=C\[C@H](C)[C@H](O)[C@@H](C)[C@@H](O)[C@@H](C)[C@H](OC(C)=O)[C@@H]1C [RIFAMPIN]
MIC [1]: > 32 µg/mL | MIC [2]: > 32 µg/mL | MIC [3]: 8 µg/mL (≈ 9.72 µM) | MIC [4]: 8 µg/mL (≈ 9.72 µM) | MIC [5]: 8 µg/mL (≈ 9.72 µM) | MIC [6]: > 256 µg/mL | MIC [7]: > 256 µg/mL | MIC [8]: 6 µg/mL (≈ 7.29 µM)

Reference: ChEMBL document CHEMBL1275412, “Detection of new arr-4 and arr-5 gene cassettes in clinical Pseudomonas aeruginosa and Klebsiella pneumoniae strains from Brazil” (2008)
